Assays:
BKV (Dunlop) = test: BKV replication in Vero cell line, extracellular BKV DNA load by qPCR; type: cell-based, BK virus; conditions: Vero cells
Procedure: (§1) For each assay, one cell aliquot was thawed and cells cultured for three days in one 25 cm^2 culture flask. Cells were then trypsinized, washed, resuspended and seeded at 1×10^4 cells/well in […] in flat bottom 96-well microplates. After 24 h incubation, cells at 75% confluence were infected with 1×10^9 genomes per well in BK medium (199 medium with 2% FBS, 2% HEPES, 1% penicillin-streptomycin 10000 U/μg final concentration). After 4 h incubation (37° C., 5% CO2), medium was removed and replaced with 200 μL of fresh BK medium after four washes. 72 h later, medium was replaced with fresh BK medium with or without gemcitabine at the indicated final concentrations. After 48 h incubation, cell culture supernatants were harvested and frozen at −80° C.
(§2) Extracellular DNA was extracted from 100 μL frozen supernatants using the automated nucleic acids extractor Nuclisens Easymag (BioMérieux, Marcy l'Etoile, France) following the manufacturer's Generic 2.0.1 procedure. Extracts were resuspended in a final volume of 25 μL buffer 3.
(§3) To quantify extracellular BKV DNA load, a quantitative PCR (qPCR) was done using the following primers (Eurofins MWG Operon) and probe (Applied Biosystem, UK): […]
(§4) Reactions were performed in a total volume of 25 μl with 5 μL of DNA extract, […] TaqMan Universal PCR Master Mix (Applied Biosystems, Hoffmann La Roche, Meylan, France), 6.5 μL H2O, 2.5 μL of each primer at 30 μM and 1 μL of probe at 10 μM.
(§5) Amplification was performed using the Rotor-Gene 6000 (Corbett Life Science) with the following PCR program: 50° C., 2 min; denaturation at 95° C., 10 min; and 45 cycles of 95° C., 15 sec; 60° C., 60 sec. Quantification was calculated with an external calibration curve using BKV plasmid constructs.

Vero cell line = type: cell-based, Cercopithecus aethiops; conditions: Vero cell culture system
Procedure: as §1
(§6) Cytotoxicity was analyzed by two colorimetric assays using the “Cytotoxicity Detection Kit (LDH)” and “Cell proliferation ELISA, BrdU” (Roche Diagnostics, Meylan, France).
The quantity of LDH was measured in cell culture supernatants and cells from every wells used for the quantification of virus replication including infected and non-infected wells and in presence or not of gemcitabine at the end of the test period according to the manufacturer's protocol. Absorbance at 492 nm (sample) and at 620 nm (background) was recorded 30 min after addition of the reaction mixture. Medium alone served as blank. […]

RPTEC primary cells = test: Cytotoxicity / cell growth by LDH activity in RPTEC primary cells; type: cell-based, human
Procedure: (§7) For each assay, one cell aliquot containing 2×10^6 cells was thawed and cells were cultured for six days in one 75 cm^2 culture flask. Cells were then trypsinized, washed, resuspended and seeded at 5×10^4 cells/well in 1 ml medium in flat bottom 24-well collagen-coated microplates. After 48 h incubation, medium was replaced with fresh REBM base medium without grown factors and supplemented with inactivated fetal bovine serum (FBS Brazilian origin, Lonza) and penicillin-streptomycin 10000 U/μg to a final concentration of 2% and 1% respectively. 48 h later, cells at 95% confluence were infected with 1×10^9 genomes per well. After 4 h incubation (37° C., 5% CO2), medium was removed and replaced with 1 ml of fresh medium without grown factors after two washes with and without gemcitabine or cidofovir at the indicated concentrations. 72 h later, at day 3 of treatment, supernatants were harvested and frozen at −80° C. and medium was replaced with fresh medium without grown factors and with the indicated concentrations of gemcitabine or cidofovir. After 48 h incubation, at day 5 of treatment, cell culture supernatants were harvested and frozen at −80° C.
as §6
The quantity of LDH was measured in cell culture supernatants and cells from every wells used for the quantification of virus replication including infected and non-infected wells and in presence or not of gemcitabine at the end of the test period according to the manufacturer's protocol. Absorbance at 492 nm (sample) and at 620 nm (background) was recorded 30 min after addition of the reaction mixture. Medium alone served as blank. Measure of LDH activity in culture supernatants was used to monitoring cell lysis and the activity in cell lysates to monitoring cell viability and mass at 72 and 120 h p.i

T antigen = test: Immunofluorescence of T antigen expression in infected RPTEC cells; type: cell-based, BK virus; conditions: 5 days of treatment
Procedure: (§8) For each assay, one cell aliquot containing 2×10^6 cells was thawed and cells were cultured for six days in one 75 cm^2 culture flask. Cells were then trypsinized, washed, resuspended and seeded at 5×10^4 cells/well in 1 ml medium in flat bottom 24-well collagen-coated microplates. After 48 h incubation, medium was replaced with fresh REBM base medium without grown factors and supplemented with inactivated fetal bovine serum (FBS Brazilian origin, Lonza) and penicillin-streptomycin 10000 U/μg to a final concentration of 2% and 1% respectively. 48 h later, cells at 95% confluence were infected with 1×10^9 genomes per well. After 4 h incubation (37° C., 5% CO2), medium was removed and replaced with 1 ml of fresh medium without grown factors after two washes with and without gemcitabine or cidofovir at the indicated concentrations. 72 h later, at day 3 of treatment, supernatants were harvested and frozen at −80° C. and medium was replaced with fresh medium without grown factors and with the indicated concentrations of gemcitabine or cidofovir. After 48 h incubation, at day 5 of treatment, cell culture supernatants were harvested and frozen at −80° C. […]

VP-1 = test: Immunofluorescence of VP-1 expression in infected RPTEC cells; type: cell-based, BK virus; conditions: 5 days of treatment
Procedure: as §8

BKV (Dunlop strain) = test: BKV replication in RPTEC primary cells, extracellular BKV DNA load by qPCR; type: cell-based, BK virus
Procedure: as §7, §2, §3, §4, §5

SMILES	IC50 (BKV (Dunlop); Betapolyomavirus hominis, 48 h, BKV Dunlop, two days of treatment, read-out: IC50, inhibition of viral replication)	IC90 (BKV (Dunlop); Betapolyomavirus hominis, 48 h, BKV Dunlop, two days of treatment, read-out: IC90, inhibition of viral replication)	inhibition of viral replication (BKV (Dunlop); concentration as low as 10 nM, in two days)	IC50 specificity index (Vero cell line)	toxicity (RPTEC primary cells)	effect on cellular growth (LDH) at higher concentrations (RPTEC primary cells; RPTEC, 50 nM range)	effect on cellular growth measured by the intracellular LDH activity (RPTEC primary cells; infected RPTEC, effective antiviral concentrations (up to 10 nM), day 5)	expression of the early protein antigen T (T antigen)	expression of the late capsid protein VP-1 (VP-1)	IC50 (BKV (Dunlop strain); Betapolyomavirus hominis, RPTEC, BKV Dunlop, read-out: IC50, inhibition of viral replication)	IC90 (BKV (Dunlop strain); Betapolyomavirus hominis, RPTEC, BKV Dunlop, read-out: IC90, inhibition of viral replication)	inhibitory effect on viral replication, 5 days versus 3 days of treatment (BKV (Dunlop strain); RPTEC)	concentrations repressing BKV replication (BKV (Dunlop strain); summary: two different cellular models, including primary renal epithelial cells)	concentration range repressing BKV replication (BKV (Dunlop strain); RPTEC, same conditions as gemcitabine)
Nc1ccn(C2OC(CO)C(O)C2(F)F)c(=O)n1 (centres unmarked) [gemcitabine, 4-amino-1-[3,3-difluoro-4-hydroxy-5-(hydroxymethyl)tetrahydrofuran-2-yl]-1H-pyrimidin-2-one]	1.5 to 2 nM	2.5 to 5 nM	totally inhibited	≥ 10	no toxicity was observed	seemed to slow down	could suppress the inhibitory effect of viral infection on the cellular growth	inhibited	inhibited	~10 nM	~50 nM	higher after 5 days than after 3 days	~10 nM	
Nc1ccn(C[C@@H](CO)OCP(=O)(O)O)c(=O)n1 [cidofovir]														μM range

Source: patent US20160250245A1, “Methods and Pharmaceutical Composition for the Treatment of Polyomavirus Infections” (INSERM (INSTITUT NATIONAL DE LA SANTÉ ET DE LA RECHERCHE …, priority 2013, published 2016)
